In ChEMBL document CHEMBL1147492, “Small molecule biaryl FSH receptor agonists. Part 1: Lead discovery via encoded combinatorial synthesis” (Bioorg Med Chem Lett, 2004) one finds EC50 data, which are given here for 5 molecules.

Structures are written as SMILES.

As a reminder, the EC50 is the concentration needed to bring the measured effect to its halfway point. Higher therefore signals a less potent agent.

The assay has as its target T1, Follicle-stimulating hormone receptor (Homo sapiens, UniProt P23945).
T1 sequence (P23945 whole entry): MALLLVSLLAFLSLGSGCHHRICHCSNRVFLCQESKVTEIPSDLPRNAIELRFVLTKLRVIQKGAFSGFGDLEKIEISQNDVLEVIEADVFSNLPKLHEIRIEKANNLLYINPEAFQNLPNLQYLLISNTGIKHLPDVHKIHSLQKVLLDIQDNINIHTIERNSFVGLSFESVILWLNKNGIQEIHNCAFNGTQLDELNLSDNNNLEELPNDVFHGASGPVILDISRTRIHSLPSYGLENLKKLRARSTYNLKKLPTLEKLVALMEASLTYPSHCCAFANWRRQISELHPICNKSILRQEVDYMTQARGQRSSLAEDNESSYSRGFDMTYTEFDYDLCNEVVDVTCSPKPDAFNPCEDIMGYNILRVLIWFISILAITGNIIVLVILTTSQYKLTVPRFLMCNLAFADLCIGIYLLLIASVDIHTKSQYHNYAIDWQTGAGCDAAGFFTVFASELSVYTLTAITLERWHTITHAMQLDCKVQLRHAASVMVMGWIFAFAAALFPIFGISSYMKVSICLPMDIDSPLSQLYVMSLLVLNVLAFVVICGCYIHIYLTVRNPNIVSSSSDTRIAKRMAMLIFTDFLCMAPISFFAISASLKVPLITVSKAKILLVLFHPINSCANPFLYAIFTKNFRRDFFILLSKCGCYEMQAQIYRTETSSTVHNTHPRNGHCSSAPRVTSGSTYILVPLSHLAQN
Description: Agonistic activity against Follicle stimulating hormone receptor expressed in chinese hamster ovary cells(CHO). Format: functional, cell-based.
Take `CCCCCCNC(=O)CN1CC(=O)N(C)[C@@H](Cc2ccc(-c3cc(OC)c(OC)c(OC)c3)cc2)C1=O`: the EC50 amounted to 3 µM.

`CCCCCCNC(=O)CN1C(=O)C(Cc2ccc(-c3ccc(CN(CCCC)C(=O)NC)cc3)cc2)N(C)C1=O` (stereo not given) registered a concentration giving a half-maximal response (EC50) of 2.5 µM.

As for `CCCCCNC(=O)CN1CC(=O)N(C)[C@@H](Cc2ccc(-c3cccc(CN(CCCC)C(=O)NC)c3)cc2)C1=O`, the response was half-maximal at 1.7 µM (EC50).

`CCCCOC(=O)N(CC(=O)NCC1CC1)Cc1ccc(-c2ccccc2CN(CCCC)C(C)=O)cc1` gave a concentration giving a half-maximal response (EC50) of 3.9 µM.

In turn, `CCCCN(Cc1cccc(-c2ccc(C(=O)NC3CCCCN(CC(=O)NCCc4ccc(Cl)cc4)C3=O)cc2)c1)C(=O)NC` (stereo not given) registered a concentration giving a half-maximal response (EC50) of 0.26 µM.
